In publication PMC8617031, “Development of a BCL-xL and BCL-2 dual degrader with improved anti-leukemic activity,” (Nature Communications, 2021):
Where “and” joins values, the source holds several entries; their conditions need not be identical. Identical values can stand only once.

What was measured:
[1] = target: T1, BCL-2/PROTAC/VCB ternary complex (Homo sapiens, UniProt P10415+P40337); test: AlphaLISA ternary complex formation, cell-free, BCL-2; assay type: binding; settings: for in vitro ternary complex formation with BCL-2 (in words): AlphaLISA, cell-free, Fig. 2d, 3f; for AlphaLISA signal, BCL-2/PROTAC/VCB: Fig. 2d raw Alpha reads
T1 construct: pGEX-6P-1-VHL(54-213) (pDL2200) was constructed through Gibson assembly method; made in house; host or cells: bacterial culture (LB broth, IPTG induction)
T1 sequence (P10415 1-211 limits assumed): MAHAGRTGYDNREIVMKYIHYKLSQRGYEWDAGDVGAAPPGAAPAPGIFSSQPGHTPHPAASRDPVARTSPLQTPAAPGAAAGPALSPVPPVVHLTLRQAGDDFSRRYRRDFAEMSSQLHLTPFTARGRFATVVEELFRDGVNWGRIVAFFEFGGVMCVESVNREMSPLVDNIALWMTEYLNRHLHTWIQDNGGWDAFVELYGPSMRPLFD
T1 sequence (P40337 54-213 limits assumed): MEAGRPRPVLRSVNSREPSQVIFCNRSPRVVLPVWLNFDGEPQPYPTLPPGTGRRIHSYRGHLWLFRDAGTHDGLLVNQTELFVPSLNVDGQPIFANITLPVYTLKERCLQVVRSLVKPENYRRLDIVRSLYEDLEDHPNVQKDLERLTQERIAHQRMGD
T1 sequence (Q15369 17-112 partner limits assumed): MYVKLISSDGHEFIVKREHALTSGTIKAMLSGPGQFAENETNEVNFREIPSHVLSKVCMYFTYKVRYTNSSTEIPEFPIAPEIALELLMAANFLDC
T1 sequence (Q15370 whole entry partner): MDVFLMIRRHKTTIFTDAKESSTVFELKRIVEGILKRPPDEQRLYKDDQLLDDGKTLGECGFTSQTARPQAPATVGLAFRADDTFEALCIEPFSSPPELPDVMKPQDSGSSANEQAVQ
Method in brief: (§1)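 Cell-free AlphaLISA: 5 nM His-tagged BCL-xL or BCL-2 plus 5 nM GST-VCB incubated with fourfold serially diluted compound 30 min at room temperature. Glutathione donor and His acceptor beads (20 µg/ml each) then added for 15 and 45 min; AlphaLISA signal plotted against compound concentration.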

[2] = target: T2, BCL-xL/PROTAC/VHL-ELOC-ELOB (VCB) ternary complex (Homo sapiens, UniProt P40337+Q07817); test: AlphaLISA ternary complex formation, cell-free, BCL-xL; assay type: binding; settings: for in vitro ternary complex formation with BCL-xL (in words): AlphaLISA, cell-free, Fig. 2c, 3e; for AlphaLISA signal, BCL-xL/PROTAC/VCB: Fig. 2c raw Alpha reads
T2 construct: pGEX-6P-1-VHL(54-213) (pDL2200) was constructed through Gibson assembly method; made in house; host or cells: bacterial culture (LB broth, IPTG induction)
T2 sequence (Q07817 1-212 limits assumed): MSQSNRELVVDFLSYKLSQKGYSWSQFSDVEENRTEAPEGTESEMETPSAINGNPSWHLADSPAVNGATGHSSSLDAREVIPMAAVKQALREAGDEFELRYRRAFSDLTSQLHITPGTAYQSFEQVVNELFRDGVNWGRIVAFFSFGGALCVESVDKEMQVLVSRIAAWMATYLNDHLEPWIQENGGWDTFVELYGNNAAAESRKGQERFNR
T2 sequence (P40337 54-213 limits assumed): as the sequence (P40337 54-213 limits assumed) above
T2 sequence (Q15369 17-112 partner limits assumed): as the sequence (Q15369 17-112 partner limits assumed) above
T2 sequence (Q15370 whole entry partner): as the sequence (Q15370 whole entry partner) above
Method in brief: as §1

BCL-xL = target: T3, BCL-xL (Homo sapiens, UniProt Q07817); test: BCL-xL degradation by immunoblot in 293T cells; assay type: cell-based; settings: for DC50: 293T cells, four concentrations, 16 h, Fig. 2b, read-out: BCL-xL DC50; for Dmax: HEK-293T
T3 construct: endogenous in cells
T3 sequence (Q07817 whole entry): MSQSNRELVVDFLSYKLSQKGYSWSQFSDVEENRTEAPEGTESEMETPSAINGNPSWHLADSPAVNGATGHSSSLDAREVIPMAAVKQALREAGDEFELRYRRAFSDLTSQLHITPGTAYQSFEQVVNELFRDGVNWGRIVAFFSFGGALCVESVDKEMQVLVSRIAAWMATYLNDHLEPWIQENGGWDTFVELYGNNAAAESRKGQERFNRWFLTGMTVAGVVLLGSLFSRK
Method in brief: (§2)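 DC50 and Dmax come from densitometry of western blots of treated 293T cells, normalized to β-actin, mean of 3 independent experiments. Lysates in RIPA, 20–40 μg loaded per lane, HRP chemiluminescence read-out.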

BCL-2 = target: T4, BCL-2 (Homo sapiens, UniProt P10415); test: BCL-2 degradation by immunoblot in 293T cells; assay type: cell-based; settings: for BCL-2 degradation (in words) / DC50: 293T cells, 16 h; for DC50: four concentrations, Fig. 2b, read-out: BCL-2 DC50; for Dmax: HEK-293T
T4 construct: endogenous in cells
T4 sequence (P10415 whole entry): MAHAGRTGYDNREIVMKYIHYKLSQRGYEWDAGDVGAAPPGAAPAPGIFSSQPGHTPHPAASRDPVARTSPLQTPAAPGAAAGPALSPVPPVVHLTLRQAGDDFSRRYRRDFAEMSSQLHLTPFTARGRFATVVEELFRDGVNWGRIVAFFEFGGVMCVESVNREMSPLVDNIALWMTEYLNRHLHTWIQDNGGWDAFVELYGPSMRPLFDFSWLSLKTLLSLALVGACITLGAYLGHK
Method in brief: as §2

[3] = compound 200000 nM, 2 technical replicates

in vitro ternary complex formation with BCL-2 (in words) [1] | AlphaLISA signal, BCL-2/PROTAC/VCB ([1]; compound 0.191 nM) | AlphaLISA signal, BCL-2/PROTAC/VCB ([1]; compound 0.763 nM) | AlphaLISA signal, BCL-2/PROTAC/VCB ([1]; compound 3.052 nM) | AlphaLISA signal, BCL-2/PROTAC/VCB ([1]; compound 12.207 nM) | AlphaLISA signal, BCL-2/PROTAC/VCB ([1]; compound 48.828 nM) | AlphaLISA signal, BCL-2/PROTAC/VCB ([1]; compound 195.31 nM) | AlphaLISA signal, BCL-2/PROTAC/VCB ([1]; compound 781.25 nM) | AlphaLISA signal, BCL-2/PROTAC/VCB ([1]; compound 3125 nM) | AlphaLISA signal, BCL-2/PROTAC/VCB ([1]; compound 12500 nM) | AlphaLISA signal, BCL-2/PROTAC/VCB ([1]; compound 50000 nM) | AlphaLISA signal, BCL-2/PROTAC/VCB [1, 3] | in vitro ternary complex formation with BCL-xL (in words) [2] | AlphaLISA signal, BCL-xL/PROTAC/VCB ([2]; compound 0.191 nM) | AlphaLISA signal, BCL-xL/PROTAC/VCB ([2]; compound 0.763 nM) | AlphaLISA signal, BCL-xL/PROTAC/VCB ([2]; compound 3.052 nM) | AlphaLISA signal, BCL-xL/PROTAC/VCB ([2]; compound 12.207 nM) | AlphaLISA signal, BCL-xL/PROTAC/VCB ([2]; compound 48.828 nM) | AlphaLISA signal, BCL-xL/PROTAC/VCB ([2]; compound 195.31 nM) | AlphaLISA signal, BCL-xL/PROTAC/VCB ([2]; compound 781.25 nM) | Compound | also measured
stronger ternary complexes | 15495 and 15269 | 16981 and 16694 | 31764 and 30263 | 220610 and 232235 | 1164349 and 1304184 | 1706795 and 1639825 | 1791615 and 1848085 | 524010 and 562226 | 80335 and 78686 | 17935 and 18240 | 8109 and 11043 | stronger ternary complexes | 19077 and 19160 | 16314 and 16977 | 21818 and 20322 | 112726 and 99392 | 824374 and 896013 | 1441307 and 1441293 | 1280941 and 1272724 | Cc1ncsc1-c1ccc([C@H](C)NC(=O)[C@@H]2C[C@@H](O)CN2C(=O)[C@@H](NC(=O)CCCCCCC(=O)N2CCN(CC3(C)CCC(c4ccc(Cl)cc4)=C(CN4CCN(c5ccc(C(=O)NS(=O)(=O)c6ccc(N[C@H](CCN7CCOCC7)CSc7ccccc7)c(S(=O)(=O)C(F)(F)F)c6)cc5)CC4)C3)CC2)C(C)(C)C)cc1 (stereo partly shown) [PPC8] | AlphaLISA signal, BCL-xL/PROTAC/VCB ([2]; compound 3125 nM): 836346 and 758740; AlphaLISA signal, BCL-xL/PROTAC/VCB ([2]; compound 12500 nM): 257313 and 288328; AlphaLISA signal, BCL-xL/PROTAC/VCB ([2]; compound 50000 nM): 78225 and 86140; AlphaLISA signal, BCL-xL/PROTAC/VCB [2, 3]: 21117 and 20625; DC50 (BCL-xL): 12.9 nM; Dmax (BCL-xL): 94%; BCL-2 degradation (in words) (BCL-2): also degraded BCL-2; DC50 (BCL-2): 54 nM; Dmax (BCL-2): 94%
much weaker ternary complexes | 13571 and 17652 | 17336 and 18248 | 22108 and 21304 | 71357 and 62189 | 336659 and 328291 | 357647 and 419151 | 267337 and 283839 | 78279 and 78565 | 15094 and 15494 | 7032 and 8982 | 9255 and 9885 | much weaker ternary complexes | 17022 and 14292 | 18582 and 21901 | 16005 and 18766 | 39343 and 38049 | 159552 and 171121 | 340009 and 336400 | 265891 and 255043 | Cc1ncsc1-c1ccc([C@H](C)NC(=O)[C@@H]2C[C@@H](O)CN2C(=O)[C@@H](NC(=O)CCCCCCCC(=O)N2CCN(CC3(C)CCC(c4ccc(Cl)cc4)=C(CN4CCN(c5ccc(C(=O)NS(=O)(=O)c6ccc(N[C@H](CCN7CCOCC7)CSc7ccccc7)c(S(=O)(=O)C(F)(F)F)c6)cc5)CC4)C3)CC2)C(C)(C)C)cc1 (stereo partly shown) [PPC9] | AlphaLISA signal, BCL-xL/PROTAC/VCB ([2]; compound 3125 nM): 73854 and 131135; AlphaLISA signal, BCL-xL/PROTAC/VCB ([2]; compound 12500 nM): 17390 and 24043; AlphaLISA signal, BCL-xL/PROTAC/VCB ([2]; compound 50000 nM): 11384 and 10586; AlphaLISA signal, BCL-xL/PROTAC/VCB [2, 3]: 11935 and 10943; DC50 (BCL-xL): 12.8 nM; Dmax (BCL-xL): 96%; BCL-2 degradation (in words) (BCL-2): also degraded BCL-2; DC50 (BCL-2): 316 nM; Dmax (BCL-2): 79%
